Measurements taken from PubChem BioAssay AID330 (DTP/NCI, 2004).
Several values for one entry are separate records, joined by “and”; a condition that tells them apart may be missing. Equal values may be shown once. Inconclusive results and toxic doses are left out. Peptide text beside a SMILES is read from it. * marks the point of attachment. Cbz = O=C(OCc1ccccc1)*

System: P388 leukemia ip, CD2F1 mice, survival T/C
Assay: NCI In Vivo Anticancer Drug Screen. Data for tumor model P388 Leukemia (intraperitoneal) in CD2F1 (CDF1) mice
Details: endpoint: median survival time, higher = longer survival
Outline: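 Mice carrying the transplanted tumor received test compound or vehicle. Survival was recorded in each group, and the value is the treated-group measurement divided by that of the vehicle-treated control group.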

[1] = dose: 50.0 mg/kg/injection, schedule: Q01DX009 (ip), vehicle: saline
[2] = dose: 100.0 mg/kg/injection, schedule: Q01DX009 (ip), vehicle: saline
[3] = dose: 200.0 mg/kg/injection, schedule: Q01DX009 (ip), vehicle: saline
[4] = dose: 25.0 mg/kg/injection, schedule: Q01DX009 (ip), vehicle: saline
[5] = dose: 50.0 mg/kg/injection, schedule: Q01DX009 (ip), vehicle: Klucel (hydroxypropylcellulose) (HPC)
[6] = dose: 100.0 mg/kg/injection, schedule: Q01DX009 (ip), vehicle: Klucel (hydroxypropylcellulose) (HPC)
[7] = dose: 200.0 mg/kg/injection, schedule: Q01DX009 (ip), vehicle: Klucel (hydroxypropylcellulose) (HPC)

CC(CN1CC(=O)NC(=O)C1)N1CC(=O)NC(=O)C1 (stereo not drawn)
T/C (dose: 6.48 mg/kg/injection, schedule: Q04DX002 (ip), vehicle: saline): 117 % of control | T/C (dose: 50.0 mg/kg/injection, schedule: Q04DX002 (ip), vehicle: Klucel (hydroxypropylcellulose) (HPC)): 123 % of control | T/C (dose: 64.8 mg/kg/injection, schedule: Q04DX003 (ip), vehicle: saline): 119 % of control | T/C (dose: 77.8 mg/kg/injection, schedule: Q04DX002 (ip), vehicle: saline with Tween-80): 118 % of control | T/C (dose: 180.0 mg/kg/injection, schedule: Q04DX002 (ip), vehicle: saline): 156 % of control | T/C (dose: 180.0 mg/kg/injection, schedule: Q04DX003 (ip), vehicle: saline): 161 % of control | T/C (dose: 200.0 mg/kg/injection, schedule: Q04DX002 (ip), vehicle: Klucel (hydroxypropylcellulose) (HPC)): 153 % of control and 163 % of control | T/C (dose: 216.0 mg/kg/injection, schedule: Q04DX002 (ip), vehicle: saline with Tween-80): 152 % of control | T/C (dose: 300.0 mg/kg/injection, schedule: Q04DX002 (ip), vehicle: saline): 174 % of control | T/C (dose: 300.0 mg/kg/injection, schedule: Q04DX003 (ip), vehicle: saline): 214 % of control and 217 % of control | T/C (dose: 360.0 mg/kg/injection, schedule: Q04DX002 (ip), vehicle: saline with Tween-80): 195 % of control | T/C (dose: 400.0 mg/kg/injection, schedule: Q04DX002 (ip), vehicle: Klucel (hydroxypropylcellulose) (HPC)): 223 % of control and 94 % of control | T/C (dose: 500.0 mg/kg/injection, schedule: Q04DX002 (ip), vehicle: saline): 100 % of control | T/C (dose: 500.0 mg/kg/injection, schedule: Q04DX003 (ip), vehicle: saline): 118 % of control and 219 % of control | T/C (dose: 600.0 mg/kg/injection, schedule: Q04DX002 (ip), vehicle: saline with Tween-80): 213 % of control

OCC(O)C(O)C(O)/C=N\O (stereo not drawn)
T/C [1]: 98 % of control | T/C [2]: 105 % of control | T/C [3]: 98 % of control

CC(O)CNC1c2ccccc2CC1O (stereo not drawn)
T/C [4]: 108 % of control | T/C [1]: 100 % of control | T/C [2]: 100 % of control

C[Se]C([Se]C)=C([Se]C)[Se]C
T/C (dose: 15.0 mg/kg/injection, schedule: Q01DX005 (ip), vehicle: saline with Tween-80): 107 % of control | T/C (dose: 30.0 mg/kg/injection, schedule: Q01DX005 (ip), vehicle: saline with Tween-80): 108 % of control | T/C (dose: 60.0 mg/kg/injection, schedule: Q01DX005 (ip), vehicle: saline with Tween-80): 100 % of control and 91 % of control

C[N+]1(C)CCC(C(=O)c2ccccc2)CC1
T/C (dose: 6.25 mg/kg/injection, schedule: Q01DX005 (ip), vehicle: saline): 108 % of control | T/C (dose: 12.5 mg/kg/injection, schedule: Q01DX005 (ip), vehicle: saline): 96 % of control | T/C (dose: 25.0 mg/kg/injection, schedule: Q01DX005 (ip), vehicle: saline): 95 % of control

CC(C)(C)c1cc(OCC2CO2)c(C(C)(C)C)cc1OCC1CO1 (stereo not drawn)
T/C [5]: 107 % of control | T/C [6]: 105 % of control | T/C [7]: 106 % of control | T/C (dose: 400.0 mg/kg/injection, schedule: Q01DX009 (ip), vehicle: Klucel (hydroxypropylcellulose) (HPC)): 116 % of control

O=C(O)c1ccc(NC(=O)c2ccco2)cc1
T/C (dose: 50.0 mg/kg/injection, schedule: Q01DX009 (ip), vehicle: saline with Tween-80): 88 % of control | T/C (dose: 100.0 mg/kg/injection, schedule: Q01DX009 (ip), vehicle: saline with Tween-80): 97 % of control | T/C (dose: 200.0 mg/kg/injection, schedule: Q01DX009 (ip), vehicle: saline with Tween-80): 89 % of control

COc1cccc(N)c1N
T/C [4]: 99 % of control | T/C (dose: 25.0 mg/kg/injection, schedule: Q01DX009 (ip), vehicle: suspension in saline): 103 % of control | T/C [1]: 100 % of control | T/C (dose: 50.0 mg/kg/injection, schedule: Q01DX009 (ip), vehicle: suspension in saline): 106 % of control | T/C [2]: 106 % of control | T/C (dose: 100.0 mg/kg/injection, schedule: Q01DX009 (ip), vehicle: suspension in saline): 107 % of control | T/C [3]: 96 % of control | T/C (dose: 200.0 mg/kg/injection, schedule: Q01DX009 (ip), vehicle: suspension in saline): 91 % of control

Cc1cnc(C)c(NN=O)n1
T/C (dose: 3.12 mg/kg/injection, schedule: Q01DX009 (ip), vehicle: saline): 101 % of control and 108 % of control | T/C (dose: 6.25 mg/kg/injection, schedule: Q01DX009 (ip), vehicle: saline): 116 % of control and 122 % of control | T/C (dose: 12.5 mg/kg/injection, schedule: Q01DX009 (ip), vehicle: saline): 117 % of control

COc1nc(OC)c2cnn(-c3ccc(Cl)cc3)c2n1
T/C (dose: 30.0 mg/kg/injection, schedule: Q01DX005 (ip), vehicle: Klucel (hydroxypropylcellulose) (HPC)): 89 % of control | T/C (dose: 60.0 mg/kg/injection, schedule: Q01DX005 (ip), vehicle: Klucel (hydroxypropylcellulose) (HPC)): 89 % of control | T/C (dose: 120.0 mg/kg/injection, schedule: Q01DX005 (ip), vehicle: Klucel (hydroxypropylcellulose) (HPC)): 92 % of control | T/C (dose: 240.0 mg/kg/injection, schedule: Q01DX005 (ip), vehicle: Klucel (hydroxypropylcellulose) (HPC)): 89 % of control

COc1cc2cccc(N)c2cc1OC
T/C (dose: 6.25 mg/kg/injection, schedule: Q01DX009 (ip), vehicle: water): 106 % of control | T/C (dose: 12.5 mg/kg/injection, schedule: Q01DX009 (ip), vehicle: water): 114 % of control | T/C (dose: 25.0 mg/kg/injection, schedule: Q01DX009 (ip), vehicle: water): 110 % of control | T/C (dose: 50.0 mg/kg/injection, schedule: Q01DX009 (ip), vehicle: water): 110 % of control

COc1ccccc1/C=N/Nc1ccc2ccccc2n1
T/C (dose: 50.0 mg/kg/injection, schedule: Q04DX003 (ip), vehicle: saline with Tween-80): 93 % of control | T/C (dose: 100.0 mg/kg/injection, schedule: Q04DX003 (ip), vehicle: saline with Tween-80): 90 % of control | T/C (dose: 200.0 mg/kg/injection, schedule: Q04DX003 (ip), vehicle: saline with Tween-80): 90 % of control

CC1=Nc2ccccc2NC(=O)C1
T/C (dose: 12.5 mg/kg/injection, schedule: Q01DX009 (ip), vehicle: Klucel (hydroxypropylcellulose) (HPC)): 99 % of control | T/C (dose: 25.0 mg/kg/injection, schedule: Q01DX009 (ip), vehicle: Klucel (hydroxypropylcellulose) (HPC)): 108 % of control | T/C [5]: 100 % of control | T/C [6]: 108 % of control

C=CCC(C=C=CCN(C)C)CO (stereo not drawn)
T/C (dose: 50.0 mg/kg/injection, schedule: Q01DX005 (ip), vehicle: saline): 103 % of control | T/C (dose: 100.0 mg/kg/injection, schedule: Q01DX005 (ip), vehicle: saline): 104 % of control

O=C(C=C(C(F)(F)F)C(F)(F)F)c1ccccc1Cl
T/C (dose: 6.25 mg/kg/injection, schedule: Q01DX009 (ip), vehicle: saline with Tween-80): 110 % of control | T/C (dose: 12.5 mg/kg/injection, schedule: Q01DX009 (ip), vehicle: saline with Tween-80): 150 % of control | T/C (dose: 12.5 mg/kg/injection, schedule: Q04DX003 (ip), vehicle: saline with Tween-80): 113 % of control | T/C (dose: 25.0 mg/kg/injection, schedule: Q04DX003 (ip), vehicle: saline with Tween-80): 118 % of control

O=[N+]([O-])c1cnc(/C=[N+](\[O-])C2CCCCC2)n1CCO
T/C [1]: 98 % of control | T/C [2]: 100 % of control | T/C [3]: 102 % of control

CS(=O)(=O)/C=C/c1ccc[nH]1
T/C [5]: 98 % of control | T/C [6]: 99 % of control | T/C [7]: 99 % of control

CCC(C)C(NC(=O)C1CCCN1C(=O)OCc1ccccc1)C(=O)O (stereo not drawn) (Cbz-Pro-Ile-OH; configuration not given here)
T/C (dose: 50.0 mg/kg/injection, schedule: Q01DX005 (ip), vehicle: saline with Tween-80): 100 % of control | T/C (dose: 100.0 mg/kg/injection, schedule: Q01DX005 (ip), vehicle: saline with Tween-80): 106 % of control | T/C (dose: 200.0 mg/kg/injection, schedule: Q01DX005 (ip), vehicle: saline with Tween-80): 98 % of control

CS(=O)(=O)Nc1ccc(Oc2c3ccccc3nc3ccccc23)cc1
T/C (dose: 100.0 mg/kg/injection, schedule: Q01DX001 (ip), vehicle: saline with Tween-80): 91 % of control | T/C (dose: 200.0 mg/kg/injection, schedule: Q01DX001 (ip), vehicle: saline with Tween-80): 92 % of control | T/C (dose: 400.0 mg/kg/injection, schedule: Q01DX001 (ip), vehicle: saline with Tween-80): 90 % of control

CCOC(=O)/C=C(\C)NC(C)=NC(C)(C)C
T/C [1]: 93 % of control | T/C [2]: 89 % of control

C/C(=C\c1ccccc1)C1C(C#N)C(=O)NC(=O)C1C#N (stereo not drawn)
T/C [5]: 101 % of control | T/C [6]: 105 % of control | T/C [7]: 106 % of control

CC(O)(CCO)CCO
T/C (dose: 25.0 mg/kg/injection, schedule: Q01DX005 (ip), vehicle: water): 98 % of control | T/C (dose: 50.0 mg/kg/injection, schedule: Q01DX005 (ip), vehicle: water): 100 % of control | T/C (dose: 100.0 mg/kg/injection, schedule: Q01DX005 (ip), vehicle: water): 98 % of control | T/C (dose: 200.0 mg/kg/injection, schedule: Q01DX005 (ip), vehicle: water): 99 % of control | T/C (dose: 400.0 mg/kg/injection, schedule: Q01DX005 (ip), vehicle: water): 99 % of control
